Results on one compound are retold here after patent EP4763845A1, “CYANO AROMATIC RING DERIVATIVE AND PHARMACEUTICAL USE THEREOF” (Haisco Pharmaceutical Group Co., Ltd., priority 2023, dated 2025).

The target of one series is T1, hERG potassium channel (Homo sapiens, UniProt Q12809).
T1 construct: expressed in transfected cells; host or cells: CHO cells stably expressing hERG
The experiment in a line: hERG potassium ion channel test (manual patch-clamp, CHO cells). The class given is cell-based. Conditions: chinese hamster; inhibitory activity against hERG potassium channel current, CHO cells, whole cell patch-clamp; read-out: IC50. (The hERG channel carries a current that helps repolarise heart muscle cells.)

Series [1] is described as follows: Pharmacokinetic test in rats. Format: in vivo, SD rats. The note with it: i.g. (5 mg/kg), vehicle 5% DMSO+5% Solutol+10% PEG400+80% (20% SBE-β-CD). The protocol:
Experimental objective: In this experiment, a single dose of the test compound was administered to SD rats via intravenous administration and intragastric gavage, and the concentration of the test compound in plasma of the rats was measured to evaluate the pharmacokinetic profile of the test compound in the rats.
Experimental animals: Male SD rats, 200-220 g, 6 rats/compound, purchased from Chengdu Ddossy Experimental Animals Co., Ltd.
Experimental method: On the day of the experiment, 6 SD rats were randomly grouped according to their body weights. The animals were fasted with water available for 12 to 14 h one day before the administration, and were fed 4 h after the administration. Table 3 Administration information of pharmacokinetic test in rats
Sampling: Before and after the administration, 0.1 mL of blood was taken from the orbits under isoflurane anaesthesia, and placed in an EDTAK2 centrifuge tube. Centrifugation was carried out at 5000 rpm at 4°C for 10 min, and the plasma was collected.
The plasma collection time points for IV&PO groups were 0, 5 min, 15 min, 30 min, 1 h, 2 h, 4 h, 7 h, 24 h, and 48 h.
Before analysis and detection, all samples were stored at -60°C. The samples were analysed quantitatively by LC-MS/MS. Table 4 Pharmacokinetic parameters of compounds of the present invention in plasma of rats

T1 sequence (Q12809 whole entry): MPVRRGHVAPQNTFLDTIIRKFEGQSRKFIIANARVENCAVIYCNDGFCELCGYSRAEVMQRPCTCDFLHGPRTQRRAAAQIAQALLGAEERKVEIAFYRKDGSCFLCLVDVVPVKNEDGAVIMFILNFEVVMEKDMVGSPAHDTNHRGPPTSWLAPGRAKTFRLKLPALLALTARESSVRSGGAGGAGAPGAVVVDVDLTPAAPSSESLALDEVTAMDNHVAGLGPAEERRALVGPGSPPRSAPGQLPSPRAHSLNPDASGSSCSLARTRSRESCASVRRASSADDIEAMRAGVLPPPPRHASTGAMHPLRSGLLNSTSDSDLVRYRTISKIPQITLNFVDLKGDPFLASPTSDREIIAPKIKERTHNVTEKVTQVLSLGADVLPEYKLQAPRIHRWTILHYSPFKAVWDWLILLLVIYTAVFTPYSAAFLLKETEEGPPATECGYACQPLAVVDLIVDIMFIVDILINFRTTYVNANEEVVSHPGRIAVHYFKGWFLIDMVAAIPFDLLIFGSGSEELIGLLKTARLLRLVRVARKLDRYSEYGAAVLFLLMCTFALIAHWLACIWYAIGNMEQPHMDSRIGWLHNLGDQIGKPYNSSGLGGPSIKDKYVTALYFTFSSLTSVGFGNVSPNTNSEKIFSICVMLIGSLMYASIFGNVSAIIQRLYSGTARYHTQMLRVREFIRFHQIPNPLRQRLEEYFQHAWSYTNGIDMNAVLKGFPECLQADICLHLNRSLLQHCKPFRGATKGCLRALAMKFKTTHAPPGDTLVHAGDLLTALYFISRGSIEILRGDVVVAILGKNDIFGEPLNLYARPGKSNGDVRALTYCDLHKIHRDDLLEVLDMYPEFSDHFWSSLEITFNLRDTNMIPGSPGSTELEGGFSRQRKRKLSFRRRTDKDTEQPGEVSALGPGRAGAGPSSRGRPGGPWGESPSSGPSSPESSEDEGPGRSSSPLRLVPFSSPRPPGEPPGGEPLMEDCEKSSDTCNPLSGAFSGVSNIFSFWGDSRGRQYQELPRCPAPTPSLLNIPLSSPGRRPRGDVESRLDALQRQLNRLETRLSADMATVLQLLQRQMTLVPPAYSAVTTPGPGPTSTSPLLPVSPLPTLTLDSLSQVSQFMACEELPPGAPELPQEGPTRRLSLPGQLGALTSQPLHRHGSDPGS

Take `CC1(C)[C@H](NC(=O)c2ccc(N3CCC(CN4CCN5c6cc(F)c(C7CCC(=O)NC7=O)cc6CC[C@H]5C4)CC3)cc2)C(C)(C)[C@H]1Oc1ccc(C#N)c2ncccc12` (stereo partly drawn) [Compound 31]: the IC50 at hERG potassium channel was > 40 µM. Moreover, the F in series [1] is on record as 49.1+12%. This compound also displayed an AUC(0-t) in series [1] (rat, plasma, po) of 5430 ± 1360 ng·h/mL.

One may read the IC50 as the concentration needed to halve the response being measured. One may read the AUC(0-t) as exposure summed from dosing to a finite time, without extrapolation to infinity. Lower therefore signals less exposure.
